Results taken from the supplement of paper PMC10307832.

What was measured:
Test in all cases: relative viability (nuclei count vs DMSO), 5 days (fraction); higher = more cells survive
[1] = tested on: NCI-H838
In short: (§1)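 Medians of duplicate plates are given as relative viability. That measure is the nuclei count in treated wells divided by the count in vehicle wells. Counts were taken on 4× images of lung cancer cell lines in 1536-well plates, 5 days after pin-tool dosing the day after seeding with one drug alone or a fixed anchor-drug dose plus five library-drug doses (not always all listed) in √10 steps.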

[2] = tested on: UMC-11
In short: as §1

[3] = tested on: HCC-15
In short: as §1

[4] = tested on: NCI-H1666
In short: as §1

[5] = tested on: LU99A
In short: as §1

[6] = tested on: LC-2-ad
In short: as §1

[7] = tested on: SK-MES-1
In short: as §1

[8] = tested on: LCLC-97TM1
In short: as §1

[9] = tested on: ChaGo-K-1
In short: as §1

[10] = tested on: BEN
In short: as §1

[11] = tested on: NCI-H661
In short: as §1

[12] = tested on: HCC-78
In short: as §1

[13] = tested on: NCI-H596
In short: as §1

[14] = tested on: NCI-H322M
In short: as §1

[15] = tested on: NCI-H1651
In short: as §1

[16] = tested on: NCI-H650
In short: as §1

[17] = tested on: LXF-289
In short: as §1

[18] = tested on: NCI-H2342
In short: as §1

[19] = tested on: NCI-H358
In short: as §1

[20] = tested on: PC-3 [JPC-3]
In short: as §1

[21] = tested on: LK-2
In short: as §1

[22] = tested on: NCI-H2087
In short: as §1

[23] = tested on: NCI-H1944
In short: as §1

Structure (SMILES): Oc1nc(-c2ccc(C(F)(F)F)cc2)nc2c1CSCC2 [XAV939] + COc1cc2c(Oc3ccc(NC(=O)C4(C(=O)Nc5ccc(F)cc5)CC4)cc3F)ccnc2cc1OCCCN1CCOCC1 [Foretinib] (partner 0.25 µM)
- relative viability ([1]; first compound 0.08 µM): 1.01
- relative viability ([1]; first compound 0.253 µM): 0.957
- relative viability ([1]; first compound 0.8 µM): 0.931
- relative viability ([1]; first compound 2.53 µM): 0.575
- relative viability ([2]; first compound 0.08 µM): 1.13
- relative viability ([2]; first compound 0.253 µM): 0.873
- relative viability ([2]; first compound 0.8 µM): 0.978
- relative viability ([2]; first compound 2.53 µM): 0.8
- relative viability ([3]; first compound 0.08 µM): 1.2
- relative viability ([3]; first compound 0.253 µM): 0.984
- relative viability ([3]; first compound 0.8 µM): 1.05
- relative viability ([3]; first compound 2.53 µM): 0.988
- relative viability ([4]; first compound 0.08 µM): 0.99
- relative viability ([4]; first compound 0.253 µM): 0.919
- relative viability ([4]; first compound 0.8 µM): 0.908
- relative viability ([4]; first compound 2.53 µM): 0.952
- relative viability ([5]; first compound 0.08 µM): 0.794
- relative viability ([5]; first compound 0.253 µM): 0.815
- relative viability ([5]; first compound 0.8 µM): 0.744
- relative viability ([5]; first compound 2.53 µM): 0.724
- relative viability ([6]; first compound 0.08 µM): 1
- relative viability ([6]; first compound 0.253 µM): 0.854
- relative viability ([6]; first compound 0.8 µM): 0.911
- relative viability ([6]; first compound 2.53 µM): 0.843
- relative viability ([7]; first compound 0.08 µM): 1.02
- relative viability ([7]; first compound 0.253 µM): 0.841
- relative viability ([7]; first compound 0.8 µM): 0.864
- relative viability ([7]; first compound 2.53 µM): 0.82
- relative viability ([8]; first compound 0.08 µM): 0.919
- relative viability ([8]; first compound 0.253 µM): 0.796
- relative viability ([8]; first compound 0.8 µM): 0.897
- relative viability ([8]; first compound 2.53 µM): 0.936
- relative viability ([9]; first compound 0.08 µM): 0.874
- relative viability ([9]; first compound 0.253 µM): 1.01
- relative viability ([9]; first compound 0.8 µM): 0.812
- relative viability ([9]; first compound 2.53 µM): 0.773
- relative viability ([10]; first compound 0.08 µM): 0.71
- relative viability ([10]; first compound 0.253 µM): 0.631
- relative viability ([10]; first compound 0.8 µM): 0.577
- relative viability ([10]; first compound 2.53 µM): 0.546
- relative viability ([11]; first compound 0.08 µM): 1.01
- relative viability ([11]; first compound 0.253 µM): 0.991
- relative viability ([11]; first compound 0.8 µM): 0.993
- relative viability ([11]; first compound 2.53 µM): 0.929
- relative viability ([12]; first compound 0.08 µM): 0.591
- relative viability ([12]; first compound 0.253 µM): 0.552
- relative viability ([12]; first compound 0.8 µM): 0.552
- relative viability ([12]; first compound 2.53 µM): 0.506
- relative viability ([13]; first compound 0.08 µM): 0.814
- relative viability ([13]; first compound 0.253 µM): 0.874
- relative viability ([13]; first compound 0.8 µM): 0.84
- relative viability ([13]; first compound 2.53 µM): 0.797
- relative viability ([14]; first compound 0.08 µM): 1.11
- relative viability ([14]; first compound 0.253 µM): 0.921
- relative viability ([14]; first compound 0.8 µM): 0.778
- relative viability ([14]; first compound 2.53 µM): 0.609
- relative viability ([15]; first compound 0.08 µM): 0.786
- relative viability ([15]; first compound 0.253 µM): 0.705
- relative viability ([15]; first compound 0.8 µM): 0.826
- relative viability ([15]; first compound 2.53 µM): 0.768
- relative viability ([16]; first compound 0.08 µM): 1.16
- relative viability ([16]; first compound 0.253 µM): 0.991
- relative viability ([16]; first compound 0.8 µM): 1.09
- relative viability ([16]; first compound 2.53 µM): 0.857
- relative viability ([17]; first compound 0.08 µM): 0.985
- relative viability ([17]; first compound 0.253 µM): 0.95
- relative viability ([17]; first compound 0.8 µM): 0.967
- relative viability ([17]; first compound 2.53 µM): 0.988
- relative viability ([18]; first compound 0.08 µM): 1.08
- relative viability ([18]; first compound 0.253 µM): 0.936
- relative viability ([18]; first compound 0.8 µM): 0.932
- relative viability ([18]; first compound 2.53 µM): 0.529
- relative viability ([19]; first compound 0.08 µM): 0.722
- relative viability ([19]; first compound 0.253 µM): 0.596
- relative viability ([19]; first compound 0.8 µM): 0.622
- relative viability ([19]; first compound 2.53 µM): 0.6
- relative viability ([20]; first compound 0.08 µM): 1.03
- relative viability ([20]; first compound 0.253 µM): 0.854
- relative viability ([20]; first compound 0.8 µM): 1.02
- relative viability ([20]; first compound 2.53 µM): 0.951
- relative viability ([21]; first compound 0.08 µM): 1.96
- relative viability ([21]; first compound 0.253 µM): 1.19
- relative viability ([21]; first compound 0.8 µM): 1.08
- relative viability ([21]; first compound 2.53 µM): 1.13
- relative viability ([22]; first compound 0.08 µM): 1.04
- relative viability ([22]; first compound 0.253 µM): 1.03
- relative viability ([22]; first compound 0.8 µM): 1.02
- relative viability ([22]; first compound 2.53 µM): 0.677
- relative viability ([23]; first compound 0.08 µM): 0.942
- relative viability ([23]; first compound 0.253 µM): 0.842
- relative viability ([23]; first compound 0.8 µM): 0.814
- relative viability ([23]; first compound 2.53 µM): 0.704
